From US11834414B2, “1-methyl-4-[(4-phenylphenyl)sulfonylmethyl]cyclohexyanol and 1-methyl-4-[[4-(2-pyridyl)phenyl]sulfonylmethyl]cyclohexanol compounds and their therapeutic use” (Modern Biosciences Limited, priority 2018, dated 2023)
pIC50: −log10 of the molar value. In brackets after ≈: the same amount, converted by molar mass. Entries after “also recorded” stand apart in the source; their conditions may differ. Where two headings read alike, the source gives them in different places.

Legend:
Rat hepatocyte stability = assay type: in vitro ADME; conditions: rat, pooled rat hepatocytes, 60 minute incubation; for hepatocyte CLint at 1 μM: read-out: Rat Clint (μL/min/million cells); for half-life at 1 μM: read-out: Rat t1/2
Description: (§1) Metabolic stability of test compounds was measured by determination of the rate of disappearance of the compound when incubated in the presence of rat or human hepatocytes, a primary source of the most important enzymes (cytochrome P450s) involved in drug metabolism. Study of drug stability in the presence of primary hepatocytes is accepted as a valuable model permitting rapid prediction of in vivo drug stability.
(§2) Rat or human hepatocytes were obtained from a commercial source and viability was assessed using a trypan blue solution prior to use. Test compounds (final concentration 1 μM, 0.1% DMSO, 0.9% acetonitrile) or a marker (diclofenac or diltiazem, final assay concentration 1 μM, 0.1% DMSO, 0.9% acetonitrile) were incubated with pooled hepatocytes for a 60 minute period and samples removed at up to 6 time points and analysed by LC-MS/MS for the presence/amount of test compounds.
(§3) Each compound was incubated for 0, 5, 15, 30, 45, or 60 minutes. The reactions were stopped by the addition of methanol containing an internal standard (1 μM Tolbutamide) at the appropriate time points, mixed and placed at −20° C. for ≥1 hour to quench and allow protein to precipitate. All samples were centrifuged (2500×g, 20 minutes, 4° C.). The aliquots were analysed using LC-MS/MS. Reactions were performed in duplicate at 37° C.
(§4) Data were processed, and the results plotted as In(concentration) vs. time. The elimination rate constant (slope of the regression line, k) was calculated using the following formula, where C(t) is the concentration at time t and C(0) is the starting concentration:
(§5) The half-life (t1/2) was calculated using the following formula: […]
(§6) The intrinsic clearance (CIint) was calculated using the following formula, where [cell] is the hepatocyte concentration in the assay: […]

[1] = Human hepatocyte stability; assay type: in vitro ADME; conditions: human, pooled human hepatocytes, human hepatocytes, 1 μM, 60 minute incubation; for hepatocyte CLint at 1 μM: read-out: Human Clint (uL/min/million cells); for half-life at 1 μM: read-out: Human t1/2
Description: as §1, §2, §3, §4, §5, §6

[2] = test system: Thp1 human monocytic cells; experiment: Thp1 Monocyte ATP Production Assay; assay type: cell-based; conditions: for pIC50: Homo sapiens, THP-1, 24 h, Thp1 cells, 24 hour incubation, ATPLite, 9-point range 10 μM to 10 nM, mean of 2 independent experiments
Description: In vitro potency of test compounds was determined by incubation with Thp1 human monocytic cells and subsequent determination of Adenosine TriPhosphate (ATP) levels using firefly luciferase.
ATP is present in all metabolically active cells. When cells lose integrity, their ability to synthesise ATP is rapidly lost. […] See, e.g., Kang et al., 2015; Jiang et al., 2013. Levels of ATP can be monitored using a system based on firefly (Photinus pyralis) luciferase (see, e.g., Auld et al., 2009) using commercially available kits. A system known as
ATPlite™ was using to measure effects of the test compounds on cellular viability in vitro. This one-step assay system is an adenosine triphosphate (ATP) monitoring system based on the production of light caused by the reaction of ATP from the cells with added luciferase and D-luciferin, as illustrated in the reaction scheme below:
The emitted light is proportional to the ATP concentration.
Thp1 cells were plated at 112500 cells per well in 125 μL RPMI-1640 (no glucose) with 1% FBS in 96-well plates. Test compounds were prepared as 100 mM solutions in DMSO. These stock solutions were diluted in DMSO and then diluted 1000× in culture medium (RPMI) before being added directly to the wells so as to give the desired final compound concentration. After a 24 hour incubation at 37° C./5% CO2, ATPLite™ (Perkin Elmer) was added to each well (1:10 v/v, 10 μL). The plate was then incubated at room temperature for 5 minutes and the emitted light was quantified on Viewlux with a measurement time of 0.3 seconds and binning 4×4.
The average results for each test compound were expressed as a percent (%) of the average control value reflecting cell viability. The average values across the concentrations tested were then plotted and the IC50 for was calculated by fitting the data to a 4-parameter IC50 equation using software from Graf it (Erithacus Software). Each experiment was repeated twice and the data are presented as the mean IC50 from both experiments.

[3] = Aqueous solubility in FaSSIF; assay type: physicochemical; conditions: kinetic from dmso stock, pH 6.5, three replicates
Description: Aqueous solubility was measured by equilibration of compounds with fasted state simulated intestinal fluid (FaSSIF) and quantified spectrophotometrically.
Preparation of blank FaSSIF: 0.21 g of sodium hydroxide (NaOH) pellets, 1.97 g of dihydrogen sodium phosphate (NaH2PO4.2H2O) and 3.09 g of sodium chloride (NaCl) were dissolved in 400 mL of deionised water. The pH was adjusted to 6.5 using 1 M hydrochloric acid and further deionised water added to a final volume of 500 mL.
Preparation of FaSSIF: 0.056 g of SIF Powder (containing sodium taurocholate and lecithin) (Phares AG) was dissolved in 25 mL of blank FaSSIF and stirred until the powder was completely dissolved. The solution was allowed to stand for 2 hours during which it became opalescent; it was used within 24 hours. The final solution composition was characterised as follows: • Sodium taurocholate: 3 mM • Lecithin: 0.75 mM • Osmolarity: 270±10 mOsmol • pH: 6.5
The optical density was measured at the end of the incubation period for test compounds and a reference used to determine solubility. In brief, two samples were prepared for each determination: a reference sample consisting of a stock solution of test compound in DMSO diluted in system solution (a phosphate free, low absorption buffer) and propanol; and a test sample (prepared in triplicate) consisting of 0.5 mL FaSSIF spiked with test compound at 0.2 mM. Each sample was incubated at room temperature for 16 hours with constant shaking at 250 rpm. At the end of the incubation period, 0.3 mL of each sample was filtered through a pION filter plate (PION, Woburn MA), diluted 1:1 with propanol and scanned using UV spectrophotometry at λmax ([…]) using a Spectra Max Plus—Version 2.1000 (Molecular Devices, Sunnyvale, CA), with pSOL Explorer solubility determination software (pION, Woburn, MA).
FaSSIF solubility was calculated using the following formula:
[formula] • wherein: • “OD” is the optical density; • “Cr” is the concentration of the reference (33.4 μM); and • “molecular weight” is for the test compound (e.g., 381.44 for ABD735).

human hepatocytes = experiment: Human hepatocyte stability; assay type: in vitro ADME; conditions: hepatocyte stability, compared to the reference compounds
Description: as §1, §2, §3, §4, §5, §6

CYP2C19 = CYP2C19 (Homo sapiens (Human), UniProt P33261); experiment: Human Cytochrome P450 Inhibition Assay (Bactosomes); assay type: in vitro ADME; conditions: recombinant Bactosomes, 10 minutes, 37° C.
Sequence of CYP2C19 (P33261 whole entry): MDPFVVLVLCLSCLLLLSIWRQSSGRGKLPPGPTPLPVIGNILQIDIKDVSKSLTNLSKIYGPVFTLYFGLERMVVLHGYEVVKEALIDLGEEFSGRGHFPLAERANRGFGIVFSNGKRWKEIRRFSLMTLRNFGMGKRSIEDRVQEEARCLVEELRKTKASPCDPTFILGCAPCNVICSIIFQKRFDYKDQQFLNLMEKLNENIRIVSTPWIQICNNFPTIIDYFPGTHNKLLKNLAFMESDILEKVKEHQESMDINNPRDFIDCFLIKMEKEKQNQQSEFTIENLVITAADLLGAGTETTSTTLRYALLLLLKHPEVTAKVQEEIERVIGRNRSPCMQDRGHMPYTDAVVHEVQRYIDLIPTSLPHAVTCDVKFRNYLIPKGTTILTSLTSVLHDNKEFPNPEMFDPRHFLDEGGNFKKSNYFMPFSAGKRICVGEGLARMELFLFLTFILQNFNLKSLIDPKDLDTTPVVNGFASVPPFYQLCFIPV

CYP2D6 = CYP2D6 (Homo sapiens (Human), UniProt P10635); experiment: as above; assay type: in vitro ADME; conditions: recombinant Bactosomes, 10 minutes, 37° C.
Sequence of CYP2D6 (P10635 whole entry): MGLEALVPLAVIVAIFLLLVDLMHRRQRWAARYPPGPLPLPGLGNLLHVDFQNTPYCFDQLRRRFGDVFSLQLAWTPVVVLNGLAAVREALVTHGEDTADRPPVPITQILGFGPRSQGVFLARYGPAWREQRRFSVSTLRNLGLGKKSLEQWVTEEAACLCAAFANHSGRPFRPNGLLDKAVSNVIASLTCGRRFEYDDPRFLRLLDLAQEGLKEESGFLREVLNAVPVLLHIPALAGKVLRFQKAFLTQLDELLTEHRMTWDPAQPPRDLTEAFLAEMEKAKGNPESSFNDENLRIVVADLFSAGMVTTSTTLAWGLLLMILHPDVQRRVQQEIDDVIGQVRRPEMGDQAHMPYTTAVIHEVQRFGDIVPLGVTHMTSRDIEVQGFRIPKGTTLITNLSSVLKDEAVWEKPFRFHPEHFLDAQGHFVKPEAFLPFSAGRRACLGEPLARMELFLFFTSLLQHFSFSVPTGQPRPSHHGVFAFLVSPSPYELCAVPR

CYP1A2 [4] = target: T1, CYP1A2 (Homo sapiens (Human), UniProt P05177); conditions: recombinant enzyme
T1 sequence (P05177 whole entry): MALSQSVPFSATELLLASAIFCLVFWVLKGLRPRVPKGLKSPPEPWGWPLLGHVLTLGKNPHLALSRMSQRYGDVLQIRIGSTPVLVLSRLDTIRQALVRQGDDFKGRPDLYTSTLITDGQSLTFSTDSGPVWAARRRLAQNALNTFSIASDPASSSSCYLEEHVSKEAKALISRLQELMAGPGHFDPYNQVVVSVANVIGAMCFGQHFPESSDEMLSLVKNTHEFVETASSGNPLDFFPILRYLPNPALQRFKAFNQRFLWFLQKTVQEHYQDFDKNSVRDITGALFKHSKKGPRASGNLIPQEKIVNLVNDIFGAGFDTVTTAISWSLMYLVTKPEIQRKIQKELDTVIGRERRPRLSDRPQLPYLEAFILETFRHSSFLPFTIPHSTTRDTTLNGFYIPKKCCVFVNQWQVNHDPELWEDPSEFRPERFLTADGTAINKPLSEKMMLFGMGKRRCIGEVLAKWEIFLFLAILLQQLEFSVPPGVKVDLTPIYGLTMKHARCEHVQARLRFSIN

CYP2C9 = CYP2C9 (Homo sapiens (Human), UniProt P11712); experiment: Human Cytochrome P450 Inhibition Assay (Bactosomes); assay type: in vitro ADME; conditions: recombinant Bactosomes, 10 minutes, 37° C.
Sequence of CYP2C9 (P11712 whole entry): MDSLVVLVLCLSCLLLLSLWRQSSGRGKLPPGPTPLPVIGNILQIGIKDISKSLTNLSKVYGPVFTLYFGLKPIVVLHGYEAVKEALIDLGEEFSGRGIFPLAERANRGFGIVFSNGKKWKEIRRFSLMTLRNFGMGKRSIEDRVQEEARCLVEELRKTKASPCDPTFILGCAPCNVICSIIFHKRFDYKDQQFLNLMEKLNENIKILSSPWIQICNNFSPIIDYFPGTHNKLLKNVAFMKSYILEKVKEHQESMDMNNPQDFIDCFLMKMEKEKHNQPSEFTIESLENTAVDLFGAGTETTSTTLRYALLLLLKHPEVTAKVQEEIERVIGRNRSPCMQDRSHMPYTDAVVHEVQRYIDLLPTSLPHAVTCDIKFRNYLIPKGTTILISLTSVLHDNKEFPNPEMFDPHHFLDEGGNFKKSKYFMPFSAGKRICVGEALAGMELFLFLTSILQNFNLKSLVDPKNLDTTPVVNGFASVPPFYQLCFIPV

CYP3A4 = CYP3A4 (Homo sapiens (Human), UniProt P08684); experiment: as above; assay type: in vitro ADME; conditions: recombinant Bactosomes, 10 minutes, 37° C.
Sequence of CYP3A4 (P08684 whole entry): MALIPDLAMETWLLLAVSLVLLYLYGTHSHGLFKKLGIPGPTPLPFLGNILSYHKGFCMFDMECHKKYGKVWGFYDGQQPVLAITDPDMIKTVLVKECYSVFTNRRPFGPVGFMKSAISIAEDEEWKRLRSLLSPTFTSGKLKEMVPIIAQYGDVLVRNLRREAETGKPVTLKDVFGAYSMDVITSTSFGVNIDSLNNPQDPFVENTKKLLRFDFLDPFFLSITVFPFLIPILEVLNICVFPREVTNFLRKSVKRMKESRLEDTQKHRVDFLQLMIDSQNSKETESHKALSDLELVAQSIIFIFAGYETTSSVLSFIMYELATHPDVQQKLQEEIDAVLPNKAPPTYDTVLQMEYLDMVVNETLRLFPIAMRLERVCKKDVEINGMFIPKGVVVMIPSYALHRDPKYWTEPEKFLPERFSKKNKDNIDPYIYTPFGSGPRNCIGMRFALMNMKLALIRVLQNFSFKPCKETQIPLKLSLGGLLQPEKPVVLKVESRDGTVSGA

CYP1A2 [5] = target: T1, CYP1A2; experiment: as above
[6] = Metabolite identification in rats; assay type: in vivo, Han Wistar rats; conditions: rat, 1 mg/kg intravenous
Description: The formation of metabolites in rats was assessed to determine the propensity of the compounds to form a biaryl metabolite.
The corresponding sulfonamide compounds (for example, reference compound HMC-C-01-A) give rise to a sulphonamide metabolite which is persistent and has a long half-life. In addition, the biaryl sulphonamide metabolite acts as an inducer of metabolism in rats, which may complicate the assessment of toxicity in rodents. Therefore, the lower the propensity to form a biaryl sulphonamide metabolite, the greater the potential suitability of the compound for development for human use.
Plasma samples from Han Wistar rats, aged 8-12 weeks, were collected from animals dosed with test compound. Test compounds at a dose of 1 mg/kg were administered intravenously as a solution in 5% NMP, 5% Solutol HS, and 90% normal saline. Animals were given free access to food throughout the study. Blood samples were taken under light isoflurane anaesthesia at 12 time points following an intravenous dose (0.033, 0.1, 0.167, 0.25, 0.5, 1, 2, 4, 6, 8, 12, and 24 hours). The blood samples were collected from a set of three rats at each time point in labelled micro centrifuge tube containing K2EDTA as anticoagulant. Plasma samples were separated by centrifugation of whole blood.
All samples were processed for analysis by protein precipitation using acetonitrile and analysed with a fit-for-purpose LC-MS/MS method.
At the completion of the study, the results were expressed as detection of the metabolite and time course of formation.

SMILES	hepatocyte CLint at 1 μM (Rat hepatocyte stability)	half-life at 1 μM (Rat hepatocyte stability)	hepatocyte CLint at 1 μM [1]	half-life at 1 μM [1]	pIC50 [2]	metabolic stability (in words) (human hepatocytes)	other results
C[C@]1(O)CC[C@H](CS(=O)(=O)c2ccc(-c3ccc(C#N)cc3)c(F)c2)CC1 [CHMSA-12-B, 2′-Fluoro-4′-(((trans-4-hydroxy-4-methylcyclohexyl)methyl)sulfonyl)-[1,1′-biphenyl]-4-carbonitrile]	–	–	< 3.1 µL/min/1e6 cells	> 7.36 h	5.49	exceptionally good stability	–
CC1(O)CCC(NS(=O)(=O)c2ccc(-c3ccc(Cl)cc3C#N)c(Cl)c2)CC1 (stereo not shown) [HMC-C-11-A, reference compound]	–	–	–	–	–	–	pIC50 (CYP2C19): 5.29; pIC50 (CYP2D6): 5.03; pIC50 (CYP1A2 [4]): 4.96; pIC50 (CYP2C9): 5.57; pIC50 (CYP3A4): 4.92
C[C@]1(O)CC[C@H](CS(=O)(=O)c2ccc(-c3ccc(C#N)cc3F)cc2C(F)(F)F)CC1 [CHMSA-02-B]	–	–	10.8 µL/min/1e6 cells	2.03 h	6.52	–	pIC50 (CYP2C19): < 5.00; pIC50 (CYP2D6): < 5.00; potency in the Thp1 monocytic ATP assay (in words) ([2]; compared to the reference compounds): excellent potency; pIC50 (CYP2C9): < 5.00; pIC50 (CYP3A4): < 5.00; pIC50 (CYP1A2 [5]): < 5.00
C[C@]1(O)CC[C@H](CS(=O)(=O)c2ccc(-c3ccc(Cl)cc3C#N)cc2)CC1 [CHMSA-10-B, 4-Chloro-4′-((trans-4-hydroxy-4-methylcyclohexyl)methanesulfonyl)-(1,1′-biphenyl)-2-carbonitrile]	336 µL/min/1e6 cells	0.08 h	5.8 µL/min/1e6 cells	3.25 h	5.71	–	time after administration at which metabolite MET-002 was detected [6]: 0.5 h; formation of biaryl sulphonamide metabolite (MET-001) in plasma ([6]; up to 24 hours): did not produce any biaryl sulphonamide metabolite; formation of biaryl sulphonic acid metabolite (MET-002) in plasma ([6]; up to 24 hours): detected only transiently; also recorded: only transiently detected
C[C@]1(O)CC[C@H](CS(=O)(=O)c2ccc(-c3ncc(F)cc3F)c(F)c2)CC1 [CHMSA-03-B, trans-4-(((4-(3,5-Difluoropyridin-2-yl)-3-fluorophenyl)sulfonyl)methyl)-1-methylcyclohexan-1-ol]	–	–	< 3 µL/min/1e6 cells	> 7.67 h	5.27	exceptionally good stability	–

Further lines, with some results ahead:

hepatocyte CLint at 1 μM (Rat hepatocyte stability)	half-life at 1 μM (Rat hepatocyte stability)	hepatocyte CLint at 1 μM [1]	half-life at 1 μM [1]	pIC50 [2]	metabolic stability (in words) (human hepatocytes)	SMILES	other results
51.3 µL/min/1e6 cells	0.523 h	< 3 µL/min/1e6 cells	> 7.67 h	5.62	–	C[C@]1(O)CC[C@H](CS(=O)(=O)c2ccc(-c3ccc(F)cc3F)cc2)CC1 [CHMSA-04-B, trans-4-(((2′,4′-difluoro-(1,1′-biphenyl)-4-yl)sulfonyl)methyl)-1-methylcyclohexan-1-ol]	solubility at 16 h [3]: 40 µg/mL (≈ 105 µM)
–	–	< 3.1 µL/min/1e6 cells	> 7.27 h	5.74	exceptionally good stability	C[C@]1(O)CC[C@@H](CS(=O)(=O)c2ccc(-c3ccc(C#N)cc3)c(F)c2)CC1 [CHMSA-12-A, 2′-fluoro-4′-(((cis-4-hydroxy-4-methylcyclohexyl)methyl)sulfonyl)-[1,1′-biphenyl]-4-carbonitrile]	–
37.4 µL/min/1e6 cells	0.785 h	40.6 µL/min/1e6 cells	0.458 h	6.01	–	C[C@]1(O)CC[C@@H](CS(=O)(=O)c2ccc(-c3ccc(F)cc3F)cc2)CC1 [CHMSA-04-A, cis-4-(((2′,4′-Difluoro-(1,1′-biphenyl)-4-yl)sulfonyl)methyl)-1-methylcyclohexan-1-ol]	solubility at 16 h [3]: > 70 µg/mL
